Test results reported in patent US20050187262A1, “Compositions comprising (S)-amlodipine and an angiotensin receptor blocker and methods of their use” (priority 2004, published 2005).

Key:
Format in all cases: in vivo, rat
rats [1] = experiment: Phase III: dose response to (S)-amlodipine malate in the absence and presence of an ARB; details: for position/shift of the dose response curve of (S)-amlodipine malate plus ARB versus (S)-amlodipine malate alone: ARB given at its ED30, FIGS. 1A and 1B; for ED50: Rattus norvegicus, iv, ARB given at its ED30, read-out: apparent ED50 of (S)-amlodipine malate when combined with the ARB; for Potential Dosage Adjustment (%): extent to which (S)-amlodipine malate could be lowered when co-administered with the ARB
Method: (§1) (S)-amlodipine malate and seven ARBs (candasartan, eprosartan, irbesartan, losartan, olmesartan, telmisartan and valsartan) were evaluated. The study was conducted in three parts. Phase I evaluated the time-course of the hypotensive actions of all eight agents ([S]-amlodipine and the seven ARBs). In Phase II, the dose-responsive effects of [S]-amlodipine malate and the seven ARBs were evaluated individually. From this phase of the study, ED30 and ED50 doses of each of the seven ARBs were identified, defined as the dose that produced 30 or 50 percent of the hypotensive effect produced by a rapid i.v. injection (30 μg/kg) of sodium nitroprusside (NTP), a short-acting vasodilator. In Phase III, the dose response to [S]-amlodipine was evaluated in the presence and absence of the ED30 and ED50dose of each of the seven ARBs, with the objective of comparing the extent to which each ARB, at its ED30 or ED50, shifted the dose-response curve of [S]-amlodipine to the left and thus, lowering the apparent ED50 of the calcium channel blocker.
(§2) Animals were anesthetized with thiobutabarbital sodium (Inactin®, 150 mg/kg, delivered i.p.), tracheotomized and placed on a thermostatically controlled heating pad (37-38° C.). The jugular vein and the carotid artery were cannulated with PE-50 tubing for drug administration and recording of cardiovascular parameters, respectively. Blood pressure was recorded from the carotid artery by means of a pressure transducer and heart rate was derived electronically from the blood pressure signal. The signal output derived electronically from the arterial pressure was analyzed with a digital computer. The software IOX-16 continuously recorded the data every 5 sec during the entire procedure for each rat. Raw arterial pressure (in mmHg) and heart rate (beats per min), as well as changes in these two parameters relative to baseline or pre-drug levels (for doses other than initial dose), both in raw units (mm Hg or beats per min [bpm]) and as percentage change from baseline were captured and analyzed. The animals were allowed to equilibrate for 15-20 min before any treatment.
(§3) Doses are expressed in terms of free active substance. Each treatment was administered in a volume of 1 mL/kg by slow (over 20-30 seconds) i.v. bolus for all test articles, in all three phases.
(§4) The data were reported as mean±S.E.M. (standard error of the mean) from 3-5 rats per group. Raw arterial pressure (in mmHg) and heart rate (beats per min), as well as changes in these two parameters relative to baseline or pre-drug levels (for doses other than initial dose), both in raw units (mmHg or beats per min [bpm]) and as percentage change from baseline, were captured and analyzed.
ED30 and ED50 for each drug were defined as the dose causing a decline in arterial pressure corresponding to 30% and to 50%, respectively, of the maximal drop in blood pressure produced by fast bolus i.v. injection (30 μg/kg) of sodium nitroprusside.
Dose-response curves with (S)-amlodipine malate in the absence and presence of each of the seven ARBs at its ED30 are shown in FIGS. 1A and 1B. The data shown in the figures are from experiments in which ED30 doses of each of the ARBs was combined with (S)-amlodipine malate. These were chosen because ED30 doses were obtainable by direct interpolation of dose response curves from Phase II. For several of the ARBs, doses corresponding to ED50 were obtained from extrapolation of their dose response curves.

rats [2] = experiment: Phase II: dose-responsive hypotensive effects of the individual agents, ED30/ED50 relative to sodium nitroprusside; details: for ED30: dose causing 30% of the maximal drop in blood pressure produced by sodium nitroprusside 30 μg/kg i.v.; for ED50: Rattus norvegicus
Method: as §1, with “From this phase of the study, ED30 and ED50 doses of each of the seven ARBs were identified, defined as the dose that produced 30 or 50 percent of the hypotensive effect produced by a rapid i.v. injection (30 μg/kg) of sodium nitroprusside (NTP), a short-acting vasodilator.” left out
as §2, with “The” for “Animals were anesthetized with thiobutabarbital sodium (Inactin®, 150 mg/kg, delivered i.p.), tracheotomized and placed on a thermostatically controlled heating pad (37-38° C.). The”
as §3, §4

rats [3] = tested on: rats
Method: as §1, §2, §3, §4

[4] = iv, dose causing 50% of the maximal drop in blood pressure produced by sodium nitroprusside 30 μg/kg i.v., read-out: ED50 (estimated)
[5] = iv, hypotensive effect did not reach 50% of the maximum NTP effect, read-out: ED50 (extrapolated from dose response curve)

| Structure (SMILES) | ED30 (rats [2]; i.v.) | position/shift of the dose response curve of (S)-amlodipine malate plus ARB versus (S)-amlodipine malate alone (rats [1]) | ED50 (rats [1]) | Potential Dosage Adjustment (%) (rats [1]) | ED50 (rats [2]; [5]) | also measured |
| --- | --- | --- | --- | --- | --- | --- |
| CCOC(=O)C1=C(COCCN)NC(C)=C(C(=O)OC)[C@@H]1c1ccccc1Cl.O=C(O)C[C@H](O)C(=O)O [(S)-amlodipine malate, (S)-Amlodipine-L-Malate] | 0.056 mg/kg |  |  |  |  | ED50 of (S)-amlodipine malate in the absence of an ARB (rats [1]; i.v., no ARB): 0.092 mg/kg; maximum decline in MBP from baseline values (rats [2]; doses 3 to 300 μg/kg i.v.): 49±1%; ED50 (estimated) (rats [2]; i.v., dose causing 50% of the maximal drop in blood pressure produced by sodium nitroprusside 30 μg/kg i.v.): 0.11 mg/kg; HR after injection of each dose (rats [2]; rat, in vivo, iv): gradually and concomitantly increased; time post-injection to maximum/peak hypotensive effect (rats [3]; 100 μg/kg i.v.): 35 to 55 min; maximum effect, decrease in blood pressure (rats [3]; 100 μg/kg i.v., anesthetized rats): 14-17 mmHg |
| CCOc1nc2cccc(C(=O)O)c2n1Cc1ccc(-c2ccccc2-c2nnn[nH]2)cc1 [Candasartan, 2-ethoxy-1-[[2′-(1H-tetrazol-5-yl)[1,1′-biphenyl]-4-yl]methyl]-1H-benzimidazole-7-carboxylic acid] | 0.008 mg/kg | offset |  |  |  | decline in MBP at the next higher dose (rats [2]; 300 mg/kg i.v.): no further decline; ED50 (rats [2]; [4]): 0.052 mg/kg; maximum decrease in MBP from baseline values (rats [2]; reached with 100 μg/kg i.v.): 34±2%; time post-injection to maximum decline of MBP (rats [3]; 30 μg/kg i.v.): 30 min; maximum declines of mean blood pressure (MBP) (rats [3]; 30 μg/kg i.v., at 30 min post-injection): about 20 mmHg |
| CCCCc1ncc(/C=C(\Cc2cccs2)C(=O)O)n1Cc1ccc(C(=O)O)cc1 [Eprosartan, (E)-α-[[2-butyl-1-[(4-carboxyphenyl)methyl]-1H-imidazol-5-yl]methylene]-2-thiophenepropanoic acid] | 0.104 mg/kg |  | 0.07 mg/kg | 24% | ~7 mg/kg | fall in MBP from baseline values at the next higher dose (rats [2]; 3000 mg/kg i.v.): 23±2%; maximum decrease in MBP from baseline values (rats [2]; reached with 1000 μg/kg i.v.): 22±2% |
| CCCCC1=NC2(CCCC2)C(=O)N1Cc1ccc(-c2ccccc2-c2nnn[nH]2)cc1 [Irbesartan, 2-butyl-3-[[2′-(1H-tetrazol-5-yl)[1,1′-bephenyl]-4-yl]methyl]-1,3-diazaspiro[4,4]non-1-en-4-one] | 0.649 mg/kg |  | 0.071 mg/kg | 23% |  | ED50 (rats [2]; [4]): 2.21 mg/kg; maximum decrease in MBP from baseline values (rats [2]; reached with 3,000 μg/kg i.v.): 28±1% |
| CCCCc1nc(Cl)c(CO)n1Cc1ccc(-c2ccccc2-c2nnn[nH]2)cc1 [Losartan, 2-butyl-4-chloro-1-[[2′-(1H-tetrazol-5-yl)[1,1′-biphenyl]-4-yl]methyl]-1H-imidazole-5-methanol] | 0.625 mg/kg |  | 0.078 mg/kg | 15% | 10 mg/kg | maximum decrease in MBP from baseline values (rats [2]; reached with 3,000 μg/kg i.v.): 23±3% |
| CCCc1nc2c(C)cc(-c3nc4ccccc4n3C)cc2n1Cc1ccc(-c2ccccc2C(=O)O)cc1 [Telmisartan, 4′-[(1,4′-dimethyl-2′-propyl[2,6′-bi-1H-benzimidazol]-1′-yl)methyl]-[1,1′-biphenyl]-2-carboxylic acid] | 0.242 mg/kg | offset |  |  | ~2 mg/kg | fall in MBP from baseline values at the next higher dose (rats [2]; 1000 mg/kg i.v.): 23±3%; maximum decrease in MBP from baseline values (rats [2]; reached with 300 μg/kg i.v.): 19±2% |
| CCCCC(=O)N(Cc1ccc(-c2ccccc2-c2nnn[nH]2)cc1)[C@H](C(=O)O)C(C)C [Valsartan, N-(1-oxopentyl)-N-[[2′-(1H-tetrazol-5-yl)[1,1′-biphenyl]-4-yl]methyl]-L-valine] | 0.229 mg/kg | greatest leftward shift | 0.063 mg/kg | 32% | ~4 mg/kg | fall in MBP from baseline values at the next higher dose (rats [2]; 1000 mg/kg i.v.): 19±3%; maximum decrease in MBP from baseline values (rats [2]; reached with 300 μg/kg i.v.): 18±3% |
